The source of these data is patent US20180265911A1, “TRIPTYCENE DERIVATIVES FOR NUCLEIC ACID JUNCTION STABILIZATION” (THE TRUSTEES OF THE UNIVERSITY OF PENNSYLVANIA, priority 2015, published 2018).

Structures are written as SMILES.

Series [1] deals with DNA 3WJ. Put plainly: UV thermal melting of DNA 3WJ (Example 1). It is filed as binding. The note with it: Example 1 numbering, DNA 3WJ 1 μM, ligand 4 μM, 10 mM CacoK pH 7.2. As for the experimental part:
(§1) An aqueous solution of 10 mM potassium cacodylate (CacoK), pH 7.2 was used as analysis buffer. DNA 3WJ and dsDNA were brought to a final concentration of 1 1.1.1\4 and 2 μM, respectively. Samples were heated to 90° C. for 5 min, cooled to room temperature slowly, then to 4° C. Samples were incubated for 1 hour at room temperature with 3 μL of ligand at a final concentration of 4 μM for DNA 3WJ. The concentration of the ligand was 8 μM for dsDNA. Denaturation was recorded at 260 nm from 5° C. to 90° C. with a heating rate of 0.5° C. min^−1. Upper and lower baselines were used to plot the fraction folded.

The subject of series [2] is dsDNA. Put plainly: UV thermal melting of dsDNA (Example 1). In kind it is binding. The note with it: Example 1 numbering, dsDNA 2 μM, ligand 8 μM, 10 mM CacoK pH 7.2. As for the experimental part: as §1
Series [3] deals with d(CAG)n(CTG) repeat nucleic acid junction. Nature of the series: Fluorescence quenching assay, TNR 3WJ (Example 5). The note with it: comparison in words. It is filed as binding. As for the experimental part: Fluorescence Quenching Assay: All experiments were conducted in 50 mM sodium phosphate buffer, pH 7.2. Fluorescence measurements were recorded with excitation at 495 nm and emission at 520 nm using 5 nm bandwidths on a Tecan M1000 plate reader. […] Samples were incubated for 2h and measured in triplicate in a 384-well plate.

The test system of series [4] is A2780 cells. Put plainly: Alamar blue cytotoxicity assay, A2780. It is filed as cell-based, human. To be noted: Example 1 numbering, 72 hours, viability shown at 50 μM. As to the method: (§2) All cell lines were maintained in a humidified incubator at 37° C. in 5% CO2. A2780 and A2780cis cells were cultured in RPMI 1640 (Corning Cellgro) supplemented with 10% fetal bovine serum (Giboc, Life Technologies), 1% L-glutamine (Corning Cellgro), penicillin and streptomycin (Corning Cellgro). Cells were seeded at a density of 2,000 cells/well in culture media (50 pt) in […] plates 24 hours prior to treatment. Cells were treated with DMSO (vehicle control), doxorubicin (positive control, 10 μM final), cisplatin (50 μM to 25 nM), or triptycenes (50 μM to 25 nM) for 72 hours at 37° C. with 5% CO2. DMSO concentrations were kept at 1%. Alamar blue (5 μL) was added and incubated for 4 hours. Fluorescence was measured at 590 nm. The vehicle control was taken as 100% cell viability and doxorubicin was taken as 0% viability.
On the technique in general: The colour change of resazurin is a common sign of viable cells or microbes.

The test system of series [5] is A2780cis cells. Nature of the series: Alamar blue cytotoxicity assay, A2780cis. In kind it is cell-based, human. As for the experimental part:
as §2

In the case of `CN(CCCN)CCCNC(=O)c1ccccc1` [Compound 4 (Example 1), N-(3-((3-aminopropyl)(methyl)amino)propyl)benzamide], the “ΔTm, stabilization of DNA 3WJ” value in series [1] turned out to be 2.0 °C. Also, the “ΔTm, dsDNA” value in series [2] was −1.3 °C.
For the compound `NC(Cc1cnc[nH]1)C(=O)Nc1ccc2c(c1)C1c3ccc(NC(=O)C(N)Cc4cnc[nH]4)cc3C2c2cc(NC(=O)C(N)Cc3cnc[nH]3)ccc21` [Trip 4 (Example 3), (2S,2′S,2″S)—N,N′,N″-(9,10-dihydro-9,10-[1,2]benzenoanthracene-2,7,15-triyl)tris(2-amino-3-(1H-imidazol-5-yl)propanamide)], the “relative binding affinity toward the TNR junction” value in series [3] was “highest affinity”.
Turning to `CN(C)CCCNC(=O)c1ccc2c(c1)C1c3ccc(C(=O)NCCCN(C)C)cc3C2c2cc(C(=O)NCCCN(C)C)ccc21` [Trip 3 (Example 1), N^2,N^6,N^14-tris(3-(dimethylamino)propyl)-9,10-dihydro-9,10-[1,2]benzenoanthracene-2,6,14-tricarboxamide], the “cytotoxicity in A2780 cells” value in series [4] is reported as “No cytotoxic activity”. Also, the “cytotoxicity in A2780cis cells” value in series [5] (Example 1 numbering, cisplatin-resistant line, Alamar blue, 72 hours, viability shown at 50 μM) is given as “No cytotoxic activity”.
With `NCCCCC(N)C(=O)Nc1ccc2c(c1)C1c3ccc(NC(=O)C(N)CCCCN)cc3C2c2cc(NC(=O)C(N)CCCCN)ccc21` [Trip 3 (Example 3), (2S,2'S,2″S)—N,N′,N″-(9,10-dihydro-9,10-[1,2]benzenoanthracene-2,7,15-triyl)tris(2,6-diaminohexanamide)], the “relative binding affinity toward the TNR junction” value in series [3] is listed as “highest affinity”.
Take `NCCCCCCCNC(=O)c1ccc2c(c1)C1c3ccc(C(=O)NCCCCCCCN)cc3C2c2cc(C(=O)NCCCCCCCN)ccc21` [Trip 2 (Example 1), N^2,N^6,N^14-tris(7-aminoheptyl)-9,10-dihydro-9,10-[1,2]benzenoanthracene-2,6,14-tricarboxamide]: the “viability of A2780cis cells” value in series [5] (50 µM) came to 6%.
